System: CD4^+ T-lymphocytes
Test: Cytokine mRNA expression profile after stimulation of CD4+ T-lymphocytes with short peptides from QR-40 pulsed on HLA-DR7 EBV cells
Assay type: cell-based, human
Text: The total RNA of the clones or cell lines was isolated from 1×10^6 cells by using the Rnagent kit (Promega, Madison, Wis., United States). The total RNA was converted to single stranded cDNA by using an oligo (dT) primer (Amersham Pharmacia Biotech, Orsay, France) and the reverse transcriptase of the avian myeloblastosis virus, in conformance with the manufacturer's specifications (Promega).
HY-specific CD4^+ T-lymphocytes were stimulated, each with […] EBV-B LCL transduced with the HY gene. The proliferation and production of IFN-γ were measured by the incorporation of ^3H-[methyl-thymidine] on day 3, and ELISA on day 1. To map the precise T-lymphocyte epitope restricted to the MHC class II, the inventors synthesized several long peptides with a potential bond with DRB1*0701 encoded in the RPS4Y regions which are different from RPS4X, based on several databases for MHC peptide binding, such as SYFPEITHI, Net-MHC, Propred and HotSpot Hunter. These peptides were tested at various concentrations: from 100 μM to 10 nM, using […] EBV-B-LCLs that express the HLA-DRB1*0701 molecule in the form of APC. The short peptide in question was identified using a series of peptides of 15 amino acids, also identified from these databases, and which are present in the long peptide which induces a positive response.
The inventors were therefore able to identify TGKIINFIKFDTGNL (SEQ ID NO: 1) as the HY peptide epitope recognized by the CD4^+ T-lymphocytes (FIG. 6). […] It is interesting to note that the cloned T-lymphocytes presented the same cytokine profile as the T-lymphocyte cell line.

[1] = female HLA-DR7 EBV cells pulsed with peptide

Row | Sequence | FoxP3/CD3ε mRNA ratio (peptide 1 μM) | IFNγ/CD3ε mRNA ratio (peptide 1 μM) | IL2/CD3ε mRNA ratio (peptide 1 μM) | FoxP3/CD3ε mRNA ratio (peptide 10 μM) | IFNγ/CD3ε mRNA ratio (peptide 10 μM) | IL2/CD3ε mRNA ratio (peptide 10 μM) | stimulation of the CD4+ T-lymphocytes by 15-mer peptides in QR-40 (in words) (Table 9) | FoxP3 mRNA response (in words) (at 1 μM) | IFNγ mRNA induction (in words) [1] | IL-2 mRNA expression (in words) [1]
1 | GKIINFIKFDTGNLCMV (Peptide GV17) [short peptide from peptide QR-40] | 0.12 | 0.12 | 0.02 | 0.27 | 0.82 | 0.02 |  |  |  | 
2 | TGKIINFIKFDTGNL (peptide TL15) [HY epitopic 15-mer peptide from RPS4Y presented by HLA-DR7] | 0.42 | 9.91 | 0.06 | 0.44 | 12.63 | 0.23 | stimulated the cells | highest FoxP3 mRNA response | specific IFNγ induction | low IL-2 mRNA expression
3 | TGNLCMVIGGANLGRVG (Peptide TG17-1) [short peptide from peptide QR-40] | 0.12 | 0.11 | 0.006 | 0.32 | 0.11 | 0.02 |  |  |  | 
4 | TGNVCMVIAGANLGRVG (Peptide TG17-2) [short peptide tested with the QR-40 peptides] | 0.23 | 0.009 | 0.0047 | 0.3 | 0.5 | 0.01 |  |  |  | 

Reference: patent US20140308261A1, “HLA-DR7 HY epitope and method for treating leukaemia” (Etablissement Français du Sang, priority 2011, published 2014)
